Assay results taken from patent US20250262197A1, “COMPOUNDS AND METHODS FOR TREATING CHEMOTHERAPY-INDUCED PAIN” (priority 2024, published 2025).
Where two headings read alike, the source gives them in different places.

What was measured:
[1] = test system: patients receiving oxaliplatin; settings: cited from earlier work
[2] = test system: oxaliplatin-induced peripheral neuropathy (cold allodynia); assay: Repeated daily oral administration in rat model of oxaliplatin-induced peripheral neuropathy, cold allodynia, paw immersion test; type: in vivo, male Sprague-Dawley rats
Procedure: Cold allodynia is measured using the cryothermostat. See Singh, V. P., Kulkarni, S. K., “Effect of licofelone against mechanical hyperalgesia and cold allodynia in the rat model of incisional pain” Pharmacological Reports 2005(57):380-384.
Cold allodynia was measured using the paw immersion test. See Singh, supra. In this test, the latency of hindpaw withdrawal was measured after immersion of the hindpaw in the cryothermostat with a temperature fixed at 10° C. (±0.5° C.).
Duloxetine was used as a reference to validate the assay.
On D-3, latency of hindpaw withdrawal was measured on both paws using the cryothermostat to obtain a pre-induction and pre-treatment baseline. […] The first administration of vehicle and Compound A (groups 1 to 4) was done on D-3, then vehicle and Compound A were daily orally administered until D18 (n=22 repeated treatments). […] On the testing days (D4, D11, and D18), latency of hindpaw withdrawal was measured on both paws using the cryothermostat to obtain a baseline. Duloxetine was then orally administered at the same time as vehicle and Compound A at time T0. Sixty minutes later, the latency of hindpaw withdrawal was measured.
Vehicle (10% Ethanol/40% PEG 400/15% Tween 80 in sterile water) and Compound A were orally administered at 3 ml/kg. Duloxetine was orally administered at 10 ml/kg. Dosing and testing were performed in a random order by a blinded experimenter with the exception of sham animals and the duloxetine-treated group. Doses are expressed in terms of free active substance.
On D-3, the latency of hindpaw withdrawal was measured on both paws using the cryothermostat to obtain preinduction and pretreatment baselines.
The first administration of vehicle and Compound A (group 1 to 4) was done on D-3 then vehicle and Compound A were daily orally administered until D18 (n=22 repeated treatments).
On the testing days (D4, D11 and D18), latency of hindpaw withdrawal was measured on both paws using the cryothermostat (baseline) then duloxetine was orally administered at the same time than vehicle and Compound A (T0) and 60 minutes later, the latency of hindpaw withdrawal was measured.
Results were expressed as: 1) the paw withdrawal latency (mean±s.e.m.) in seconds for each group, calculated from individual paw withdrawal latency; and 2) the percentage of variation of the paw withdrawal latency calculated from the mean value of the vehicle-treated group. To determine a statistical effect of the test substance and the reference substance, data were analyzed by a non-parametrical test. The significance level was p<0.05.

[3] = test system: oxaliplatin-induced peripheral neuropathy (cold allodynia); assay: Single oral administration in rat model of oxaliplatin-induced peripheral neuropathy, cold allodynia, paw immersion test; type: in vivo, male Sprague-Dawley rats; settings: for percentage of variation of the paw withdrawal latency as compared to the vehicle-treated group: p<0.05
Procedure: Cold allodynia is measured using the cryothermostat. See […]., “Effect of licofelone against mechanical hyperalgesia and cold allodynia in the rat model of incisional pain” Pharmacological Reports 2005(57):380-384. […] Cheng, X., et al., “Herbal Medicine AC591 Prevents oxaliplatin-Induced Peripheral Neuropathy in Animal Model and Cancer Patients” Frontiers in Pharmacology, 2017(8):344. This model is useful to evaluate the analgesic effects of new compounds on oxaliplatin-induced chronic painful symptoms. Cold allodynia was measured using the paw immersion test. See Singh, supra. In this test, the latency of hindpaw withdrawal was measured after immersion of the hindpaw in the cryothermostat with a temperature fixed at 10° C. (±0.5° C.). […] On day zero (D0), latency of hindpaw withdrawal was measured on both paws using the cryothermostat (Baseline pre-induction). […] Sixty minutes later, the latency of hindpaw withdrawal was measured on both paws using the cryothermostat. […] Doses are expressed in terms of free active substance. […] On D0, latency of hindpaw withdrawal was measured on both paws using the cryothermostat to obtain a preinduction baseline preinduction. […] Sixty minutes later, the latency of hindpaw withdrawal was measured on both paws using the cryothermostat. […] Rats were sacrificed at the end of the experiment by CO2 inhalation pending subsequent removal by a certified company. Results were expressed as: 1) the paw withdrawal latency (mean±s.e.m.) in seconds for each group, calculated from individual paw withdrawal latency; and 2) the percentage of variation of the paw withdrawal latency calculated from the mean value of the vehicle-treated group. To determine a statistical effect of the test substance and the reference substance, data were analyzed by a non-parametrical test. The significance level was p<0.05.

O=C1[O][Pt]2([NH][C@@H]3CCCC[C@H]3[NH]2)[O]C1=O [oxaliplatin]
prevalence of CIPN in patients receiving oxaliplatin ([1]; after one month of chemotherapy): approximately 68%
prevalence of CIPN in patients receiving oxaliplatin ([1]; at six months or more): 30%
prevalence of CIPN in patients receiving oxaliplatin ([1]; at three months): 60%
patients who took oxaliplatin reporting long-lasting neuropathic symptoms ([1]; chronic neuropathic pain): Approximately 60%

CC(C)C[C@](C)(N)COc1ccc(-c2ccnc(C(F)F)c2)nc1C(F)F [Compound A, ((S)-1-((2′,6-bis (difluoromethyl)-[2,4′-bipyridin]-5-yl)oxy)-2,4-dimethylpentan-2-aminiumdihydrogen phosphate]
increase in the paw withdrawal latency as compared to the vehicle-treated group ([2]; daily oral administrations at 3 mg/kg): did not show a statistically significant increase
percentage of variation of the paw withdrawal latency as compared to the vehicle-treated group ([2]; daily p.o. 30 mg/kg then 10 mg/kg, week 2, baseline (before the day's dose), ns): +25%
paw withdrawal latency (mean±s.e.m.) ([2]; daily p.o. 30 mg/kg then 10 mg/kg, week 3, 60 minutes after the administration, vehicle 6.7±0.6 sec, p<0.05): 10.2 ± 0.8 s
percentage of variation of the paw withdrawal latency as compared to the vehicle-treated group ([2]; daily p.o. 30 mg/kg then 10 mg/kg, week 3, baseline (before the day's dose), p<0.05): +43%
increase in paw withdrawal latency as compared to the vehicle-treated group ([3]; 10 mg/kg p.o., 60 minutes post-treatment): did not show a statistically significant increase
percentage of variation of the paw withdrawal latency as compared to the vehicle-treated group ([3]; 30 mg/kg p.o., week 3, 60 minutes post-treatment): +35%

CNCC[C@H](Oc1cccc2ccccc12)c1cccs1 [Duloxetine]
percentage of variation of the paw withdrawal latency as compared to the vehicle-treated group ([2]; 100 mg/kg p.o. on testing day, week 2, 60 minutes after treatment, p<0.01): +33%
increase in the paw withdrawal latency as compared to the pre-drug baseline of the corresponding group ([2]; 100 mg/kg p.o. on testing day, week 3, 60 minutes after treatment, not significant): +50%
paw withdrawal latency (mean±s.e.m.) ([2]; 100 mg/kg p.o., week 3, 60 minutes after treatment, pre-drug baseline of the group 6.3±0.3 sec): 9.4 ± 0.7 s
percentage of variation of the paw withdrawal latency as compared to the vehicle-treated group ([3]; 100 mg/kg p.o., week 2, 60 minutes post-treatment): +42%
percentage of variation of the paw withdrawal latency as compared to the vehicle-treated group ([3]; 100 mg/kg p.o., week 3, 60 minutes post-treatment): +74%
